IC50 and inhibition data for 29 molecules are collected here from patent publication US20130165464A1, “HETEROARYLS AND USES THEREOF” (MILLENNIUM PHARMACEUTICALS, INC., priority 2011, published 2013).

By pIC50 is commonly meant −log10 of the IC50, conventionally taken in molar units. Read a low pIC50 as a large IC50. The term inhibition denotes the percentage by which the read-out fell short of the control.

pIC50: −log10 of the molar value.

The assay addresses T1, VPS34 (Homo sapiens, UniProt Q8NEB9).
T1 construct: GST (N); host or cells: SF9 insect cells (baculovirus)
The experiment in a line: Human VPS34 enzyme assay (Adapta TR-FRET). Type of assay: biochemical. The conditions noted are these: for inhibition at 1.11 µM: 1 h, at a 1.11 μM concentration, read-out: VPS34 Percent Inhibition. As for the experimental part:
VPS34 (accession number GB:BCO33004) was cloned into pDEST20-Thombin as N-terminal GST tagged fusion proteins using the Gateway system (Invitrogen, catalog#11804-013). The sequences were verified before recombinant protein expression using the Baculovirus Expression System with Gateway® Technology.
For expression VPS34 was infected at 1MOI in SF9 cells and harvested 72 hours post infection.
For purification, VPS34 is purified by Glutathione Sepharose 4 Fast Flow (GE Healthcare #17-5132-03) followed by HiTrap Q (GE Healthcare #17-1153-01).
Human VPS34 Enzyme Assay Method
100 nL compounds in DMSO are added to wells of a 384 well microtitre plate (Greiner 780076). At room temperature: 5 ul VPS34 reaction buffer (Invitrogen Assay Buffer Q (diluted 1 in 5 with nanopure water) plus 2 mM DTT and 2 mM MnCl2) containing ATP (20 uM, Promega) and 200 uM PI-PS substrate (Invitrogen PV5122) is added followed immediately by 5 ul VPS34 reaction buffer (as above) containing VPS34 (5 nM, Millennium Protein Sciences Group) and the mixture is incubated with shaking at room temperature for 1 hour. Then 5 ul VPS34 stop-detect mix (as per Invitrogen Adapta Assay kit (PV5009) instructions (contains kinase quench buffer, TR-FRET buffer, Adapta Eu anti-ADP antibody and Alexa Fluor 647 ADP tracer)) is added to quench the reaction. The plates are then incubated for 30 minutes at room temperature with shaking and then read on a BMG PheraStar Plus reader.
For the assay methods described above, test compound percent inhibition, at various concentrations, is calculated relative to control (DMSO and EDTA) treated samples. Compound concentration versus percent inhibition curves are fitted to generate IC50 values. One skilled in the art will appreciate that the values generated either as percentage inhibition at a single concentration or IC50 values are subject to experimental variation.

T1 sequence (Q8NEB9 whole entry): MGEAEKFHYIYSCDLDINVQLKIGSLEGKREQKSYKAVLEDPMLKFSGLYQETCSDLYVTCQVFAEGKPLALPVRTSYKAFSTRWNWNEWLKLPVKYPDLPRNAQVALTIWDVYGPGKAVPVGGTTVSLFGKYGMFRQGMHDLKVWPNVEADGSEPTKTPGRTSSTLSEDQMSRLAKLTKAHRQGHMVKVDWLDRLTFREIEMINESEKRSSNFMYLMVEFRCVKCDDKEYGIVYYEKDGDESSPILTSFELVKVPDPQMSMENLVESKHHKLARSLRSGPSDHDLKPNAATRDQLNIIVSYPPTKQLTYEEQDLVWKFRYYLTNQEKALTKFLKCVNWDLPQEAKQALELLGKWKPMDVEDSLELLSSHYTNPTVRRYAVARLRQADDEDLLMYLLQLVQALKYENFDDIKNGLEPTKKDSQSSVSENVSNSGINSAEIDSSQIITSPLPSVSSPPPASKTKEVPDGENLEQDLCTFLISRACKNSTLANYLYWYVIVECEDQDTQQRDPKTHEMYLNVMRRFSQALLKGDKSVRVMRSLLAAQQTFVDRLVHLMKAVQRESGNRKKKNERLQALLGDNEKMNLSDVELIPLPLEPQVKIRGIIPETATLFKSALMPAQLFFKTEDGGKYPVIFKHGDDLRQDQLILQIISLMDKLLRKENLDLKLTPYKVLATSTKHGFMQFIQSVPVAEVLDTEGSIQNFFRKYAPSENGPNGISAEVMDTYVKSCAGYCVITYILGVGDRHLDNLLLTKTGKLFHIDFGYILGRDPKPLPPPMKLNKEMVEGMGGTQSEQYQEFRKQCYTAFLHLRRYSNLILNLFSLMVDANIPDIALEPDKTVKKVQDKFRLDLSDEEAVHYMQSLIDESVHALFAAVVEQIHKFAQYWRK

As to `CC(=O)Nc1cc(-n2cc(-c3ccccc3Cl)c(-c3nnc[nH]3)n2)ccn1` [I-1, N-{4-[4-(2-chlorophenyl)-3-(1H-1,2,4-triazol-3-yl)-1H-pyrazol-1-yl]pyridin-2-yl}acetamide], the pIC50 is 6.00 to 6.82 and the inhibition at 1.11 µM stood at 98%.
For `CC(=O)Nc1cc(-n2cc(C(N)=O)c(-c3ccccc3Cl)c2)ccn1` [I-2, 1-(2-acetamidopyridin-4-yl)-4-(2-chlorophenyl)-1H-pyrrole-3-carboxamide] the same measures were over 7.30 and over 99%.
As to `CC(=O)Nc1cc(-n2nc(-c3ccccc3Cl)c(-c3nc[nH]n3)c2Br)c(Br)cn1` [I-4, N-{5-bromo-4-[5-bromo-3-(2-chlorophenyl)-4-(1H-1,2,4-triazol-3-yl)-1H-pyrazol-1-yl]pyridin-2-yl}acetamide], the negative-log IC50 (pIC50) is 5.30 to 6.00 and the inhibition at 1.11 µM was determined as 18%.
On the same counts, the results for `CC(=O)Nc1cc(-n2cc(-c3nc[nH]n3)c(-c3ccccc3Cl)n2)c(C)cn1` [I-5, N-{4-[3-(2-chlorophenyl)-4-(1H-1,2,4-triazol-3-yl)-1H-pyrazol-1-yl]-5-methylpyridin-2-yl}acetamide] are over 7.30 and over 99%.
On the same counts, the results for `CC(=O)Nc1cc(-n2cc(C(=O)O)c(-c3ccccc3Cl)n2)c(C)cn1` [I-6, 1-(2-acetamido-5-methylpyridin-4-yl)-3-(2-chlorophenyl)-1H-pyrazole-4-carboxylic acid] are 6.00 to 6.82 and 97%.
On to `NC(=O)c1cn(-c2ccnc3[nH]ccc23)nc1-c1ccccc1Cl` [I-7, 3-(2-chlorophenyl)-1-(1H-pyrrolo[2,3-b]pyridin-4-yl)-1H-pyrazole-4-carboxamide], for which the negative-log IC50 (pIC50) is 6.00 to 6.82 and the inhibition at 1.11 µM worked out at 88%.
In the case of `CC(=O)Nc1cc(-n2cc(C(N)=O)c(-c3ccccc3Cl)n2)ccn1` [I-8, 1-(2-acetamidopyridin-4-yl)-3-(2-chlorophenyl)-1H-pyrazole-4-carboxamide], the inhibition at 1.11 µM was over 99%.
As to `CC(=O)Nc1cc(-n2cc(C(N)=O)c(-c3ccccc3Cl)n2)c(Cl)cn1` [I-9, 1-(2-acetamido-5-chloropyridin-4-yl)-3-(2-chlorophenyl)-1H-pyrazole-4-carboxamide], the pIC50 was 6.00 to 6.82 and the inhibition at 1.11 µM was over 99%.
On to `CC(=O)Nc1cc(-n2cc(C(N)=O)c(-c3ccccc3Cl)n2)c(C)cn1` [I-11, 1-(2-acetamido-5-methylpyridin-4-yl)-3-(2-chlorophenyl)-1H-pyrazole-4-carboxamide], for which the negative logarithm of the IC50 (pIC50) was 6.00 to 6.82 and the inhibition at 1.11 µM was 96%.
With `CC(=O)Nc1cc(-n2cc(-c3nc[nH]n3)c(-c3ccccc3Cl)n2)ccn1` [I-12, N-{4-[3-(2-chlorophenyl)-4-(1H-1,2,4-triazol-3-yl)-1H-pyrazol-1-yl]pyridin-2-yl}acetamide], the negative logarithm of the IC50 (pIC50) was over 7.30 and the inhibition at 1.11 µM is over 99%.
With `CC(=O)Nc1cc(-n2cc(C(N)=O)c(-c3ccc(Cl)cc3Cl)n2)ccn1` [I-13, 1-(2-acetamidopyridin-4-yl)-3-(2,4-dichlorophenyl)-1H-pyrazole-4-carboxamide], the inhibition at 1.11 µM is over 99%.
For `COC(=O)Nc1cc(-n2cc(-c3nc[nH]n3)c(-c3ccccc3Cl)n2)ccn1` [I-17, methyl {4-[3-(2-chlorophenyl)-4-(1H-1,2,4-triazol-3-yl)-1H-pyrazol-1-yl]pyridin-2-yl}carbamate], the pIC50 is over 7.30 and the inhibition at 1.11 µM was over 99%.
On the same counts, the results for `CC(=O)Nc1cc(-n2cc(-c3nc[nH]n3)c(-c3ccccc3Cl)n2)c(Br)cn1` [I-18, N-{5-bromo-4-[3-(2-chlorophenyl)-4-(1H-1,2,4-triazol-3-yl)-1H-pyrazol-1-yl]pyridin-2-yl}acetamide] are 6.00 to 6.82 and 89%.
For the molecule `CC(=O)Nc1cc(-n2cc(-c3ccccc3Cl)c(C(N)=O)n2)ccn1` [I-20, 1-(2-acetamidopyridin-4-yl)-4-(2-chlorophenyl)-1H-pyrazole-3-carboxamide], the negative logarithm of the IC50 (pIC50) is 5.30 to 6.00 and the inhibition at 1.11 µM was found to be 29%.
For `CC(=O)Nc1cc(-n2cc(-c3nnc[nH]3)c(-c3ccccc3Cl)c2)ccn1` [I-22, N-{4-[3-(2-chlorophenyl)-4-(1H-1,2,4-triazol-3-yl)-1H-pyrrol-1-yl]pyridin-2-yl}acetamide] the same measures were over 7.30 and over 99%.
For the molecule `O=C(Nc1cc(-n2cc(-c3nc[nH]n3)c(-c3ccccc3Cl)n2)ccn1)C1CC1` [I-23, N-{4-[3-(2-chlorophenyl)-4-(1H-1,2,4-triazol-3-yl)-1H-pyrazol-1-yl]pyridin-2-yl}cyclopropanecarboxamide], the negative-log IC50 (pIC50) is over 7.30 and the inhibition at 1.11 µM was over 99%.
On the same counts, the results for `CC(=O)Nc1cc(-n2cc(-c3ccn[nH]3)c(-c3ccccc3Cl)n2)ccn1` [I-25, N-{4-[3′-(2-chlorophenyl)-1H,1′H-3,4′-bipyrazol-1′-yl]pyridin-2-yl}acetamide] are over 7.30 and over 99%.
Take `Cc1cnc(NC(=O)C(C)C)cc1-n1cc(-c2nc[nH]n2)c(-c2ccccc2Cl)c1` [I-26, N-{4-[3-(2-chlorophenyl)-4-(1H-1,2,4-triazol-3-yl)-1H-pyrrol-1-yl]-5-methylpyridin-2-yl}-2-methylpropanamide]: the pIC50 was 6.00 to 6.82 and the inhibition at 1.11 µM is 78%.
On the same counts, the results for `CC(=O)Nc1cc(-n2cc(-c3ncc[nH]3)c(-c3ccccc3Cl)n2)c(C)cn1` [I-27, N-{4-[3-(2-chlorophenyl)-4-(1H-imidazol-2-yl)-1H-pyrazol-1-yl]-5-methylpyridin-2-yl}acetamide] are over 7.30 and over 99%.
`CCC(=O)Nc1cc(-n2cc(C(N)=O)c(-c3ccccc3Cl)c2)c(C)cn1` [I-28, 4-(2-chlorophenyl)-1-[5-methyl-2-(propionylamino)pyridin-4-yl]-1H-pyrrole-3-carboxamide]: the pIC50 was over 7.30 and the inhibition at 1.11 µM is over 99%.
Regarding `O=C(O)c1cn(-c2ccnc(NCCc3ccc(O)cc3)n2)nc1-c1ccccc1Cl` [I-29, 3-(2-chlorophenyl)-1-(2-{[2-(4-hydroxyphenyl)ethyl]amino}pyrimidin-4-yl)-1H-pyrazole-4-carboxylic acid], the pIC50 was 5.30 to 6.00 and the inhibition at 1.11 µM is 44%.
As to `O=C(O)c1cn(-c2ccnc(NCCc3ccccc3)n2)nc1-c1ccccc1Cl` [I-30, 3-(2-chlorophenyl)-1-{2-[(2-phenylethyl)amino]pyrimidin-4-yl}-1H-pyrazole-4-carboxylic acid], the pIC50 was 5.30 to 6.00 and the inhibition at 1.11 µM was 14%.
On the same counts, the results for `CC(=O)Nc1cc(-n2cc(-c3nc[nH]n3)c(-c3ccccc3Cl)c2)c(C)cn1` [I-31, N-{4-[3-(2-chlorophenyl)-4-(1H-1,2,4-triazol-3-yl)-1H-pyrrol-1-yl]-5-methylpyridin-2-yl}acetamide] are over 7.30 and over 99%.
On the same counts, the results for `CC(=O)Nc1cc(-n2cc(-c3ncc[nH]3)c(-c3ccccc3Cl)n2)ccn1` [I-32, N-{4-[3-(2-chlorophenyl)-4-(1H-imidazol-2-yl)-1H-pyrazol-1-yl]pyridin-2-yl}acetamide] are over 7.30 and over 99%.
With `Cc1cnc(NC(=O)C(C)C)cc1-n1cc(C(N)=O)c(-c2ccccc2Cl)c1` [I-33, 4-(2-chlorophenyl)-1-[2-(isobutyrylamino)-5-methylpyridin-4-yl]-1H-pyrrole-3-carboxamide], the pIC50 was 5.30 to 6.00 and the inhibition at 1.11 µM came out at 42%.
On the same counts, the results for `Cc1cnc(NC(=O)C2CC2)cc1-n1cc(C(N)=O)c(-c2ccccc2Cl)n1` [I-34, 3-(2-chlorophenyl)-1-{2-[(cyclopropylcarbonyl)amino]-5-methylpyridin-4-yl}-1H-pyrazole-4-carboxamide] are 6.00 to 6.82 and 92%.
For `COc1ccc(-c2nn(-c3cc(NC(C)=O)ncc3C)cc2-c2nc[nH]n2)c(Cl)c1` [I-35, N-{4-[3-(2-chloro-4-methoxyphenyl)-4-(1H-1,2,4-triazol-3-yl)-1H-pyrazol-1-yl]-5-methylpyridin-2-yl}acetamide], the negative-log IC50 (pIC50) is over 7.30 and the inhibition at 1.11 µM was over 99%.
On to `COC(=O)Nc1cc(-n2cc(C(N)=O)c(-c3ccccc3Cl)c2)c(C)cn1` [I-36, methyl {4-[3-carbamoyl-4-(2-chlorophenyl)-1H-pyrrol-1-yl]-5-methylpyridin-2-yl}carbamate], for which the pIC50 is over 7.30 and the inhibition at 1.11 µM is over 99%.
In the case of `CC(=O)Nc1cc(-n2cc(C(N)=O)c(-c3ccccc3Cl)c2)c(Cl)cn1` [I-37, 1-(2-acetamido-5-chloropyridin-4-yl)-4-(2-chlorophenyl)-1H-pyrrole-3-carboxamide], the negative logarithm of the IC50 (pIC50) was 6.00 to 6.82 and the inhibition at 1.11 µM was found to be 88%.
